# Reference: patent publication US11970474B2, “Substituted benzodiazoles and use thereof in therapy” (THOMAS HELLEDAYS STIFTELSE FÖR MEDICINSK FORSKNING, priority 2018, dated 2024)
# Target: OGG1 (Homo sapiens (Human), UniProt O15527)
# Experiment: In vitro OGG1 activity assay
# Assay type: biochemical
# Conditions: 800 pM OGG1 enzyme, 2 nM human APEX1, 10 nM 8-oxoA:C substrate
# Description: Method 1: In Vitro OGG1 Activity Assay OGG1 activity is assayed by measuring the increase in fluorescence from a duplex oligonucleotide containing an OGG1 substrate and a fluorophore in close proximity that are quenched by a quencher on the complementary strand. […] OGG1 activity releases the substrate base from DNA by cleaving the N-glycosidic bond between base and deoxyribose. The resulting apurinic site is cleaved by an excessive amount APEX1 activity which cause the duplex to melt, which in turn cause the fluorophore to become unquenched. Compounds to be tested are dissolved in DMSO and nano-dispensed directly into black 384-well plates, followed by transfer of enzyme and substrate solutions. […] The fluorescent signal is recorded in a plate reader equipped with suitable filters to register fluorescein fluorescence.
# OGG1, sequence (O15527 whole entry): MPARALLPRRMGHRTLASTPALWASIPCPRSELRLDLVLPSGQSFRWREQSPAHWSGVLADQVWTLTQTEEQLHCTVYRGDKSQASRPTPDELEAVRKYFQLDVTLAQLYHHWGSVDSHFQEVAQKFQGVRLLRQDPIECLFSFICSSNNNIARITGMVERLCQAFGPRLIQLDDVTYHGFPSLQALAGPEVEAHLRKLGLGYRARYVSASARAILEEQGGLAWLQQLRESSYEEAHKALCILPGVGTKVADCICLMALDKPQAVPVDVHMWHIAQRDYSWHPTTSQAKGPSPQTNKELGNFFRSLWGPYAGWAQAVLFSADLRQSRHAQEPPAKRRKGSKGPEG
row,SMILES,IC50 [nM]
1,"O=C(Nc1cnc(Cl)c(Cl)c1)N1CCC(n2c(=O)[nH]c3c(Br)cccc32)CC1 [Example 109, 4-(4-Bromo-2-oxo-2,3-dihydro-1H-1,3-benzodiazol-1-yl)-N-(5,6-dichloropyridin-3-yl)piperidine-1-carboxamide]",6460
2,"COc1cc(F)cc(NC(=O)[C@H]2CC[C@@H](n3c(=O)[nH]c4c(Br)cccc43)CC2)c1 [Example 155, (Cis)-4-(4-bromo-2-oxo-2,3-dihydro-1H-1,3-benzodiazol-1-yl)-N-(3-fluoro-5-methoxyphenyl)cyclohexane-1-carboxamide]",1820
3,"O=c1[nH]c2c(Br)cccc2n1[C@H]1CC[C@@H](C(=O)Nc2ccc(C(F)(F)F)cc2)CC1 [Example 133, (Cis)-4-(4-bromo-2-oxo-2,3-dihydro-1H-1,3-benzodiazol-1-yl)-N-[4-(trifluoromethyl)phenyl]cyclohexane-1-carboxamide]",865
4,"CC1CN(C(=O)Nc2ccc(Cl)c(Cl)c2)CCC1n1c(=O)[nH]c2c(Br)cccc21 (centres unmarked) [Example 113, 4-(4-Bromo-2-oxo-2,3-dihydro-1H-benzo[d]imidazol-1-yl)-N-(3,4-dichlorophenyl)-3-methylpiperidine-1-carboxamide]",3200
5,"COc1cc(NC(=O)N2CCC(n3c(=O)[nH]c4c(-c5cncc(N)c5)cccc43)CC2)ccc1C [Example 97, 4-[4-(5-Aminopyridin-3-yl)-2-oxo-2,3-dihydro-1H-1,3-benzodiazol-1-yl]-N-(3-methoxy-4-methylphenyl)piperidine-1-carboxamide]",1720
6,"CN(C)CCOc1ccc(-c2cccc3c2[nH]c(=O)n3C2CCN(C(=O)Nc3ccc(Cl)c(Cl)c3)CC2)cc1 [Example 36, N-(3,4-dichlorophenyl)-4-(4-{4-[2-(dimethylamino)ethoxy]phenyl}-2-oxo-2,3-dihydro-1H-1,3-benzodiazol-1-yl)piperidine-1-carboxamide]",3650
7,"COc1cccc2c1[nH]c(=O)n2C1CCN(C(=O)Nc2ccc(Cl)cc2)CC1 [Example 8, N-(4-chlorophenyl)-4-(4-methoxy-2-oxo-2,3-dihydro-1H-1,3-benzodiazol-1-yl)piperidine-1-carboxamide]",1550
8,"O=C(Nc1ccc(Cl)cc1)N1CCC(n2c(=O)[nH]c3cc(Cl)ccc32)CC1 [Example 1, 4-(5-Chloro-2-oxo-2,3-dihydro-1H-1,3-benzodiazol-1-yl)-N-(4-chlorophenyl) piperidine-1-carboxamide]",2800
9,"COCCOc1cccc2c1[nH]c(=O)n2[C@H]1CC[C@@H](C(=O)Nc2ccc3cc[nH]c3c2)CC1 [Example 246, Cis-N-(1H-indol-6-yl)-4-[4-(2-methoxyethoxy)-2-oxo-2,3-dihydro-1H-1,3-benzodiazol-1-yl]cyclohexane-1-carboxamide]",3630
10,"O=c1[nH]c2c(F)cccc2n1[C@H]1CC[C@@H](C(=O)Nc2ccc3cc[nH]c3c2)CC1 [Example 215, Cis-4-(4-fluoro-2-oxo-2,3-dihydro-1H-1,3-benzodiazol-1-yl)-N-(1H-indol-6-yl)cyclohexane-1-carboxamide]",580
11,"COc1cc(NC(=O)[C@H]2CC[C@@H](n3c(=O)[nH]c4cc(CN)ccc43)CC2)ccc1C [Example 256, Cis-4-[5-(aminomethyl)-2-oxo-2,3-dihydro-1H-1,3-benzodiazol-1-yl]-N-(3-methoxy-4-methylphenyl)cyclohexane-1-carboxamide]",2690
12,"CC1CC(n2c(=O)[nH]c3c(Br)cccc32)CCN1C(=O)Nc1ccc(Cl)c(Cl)c1 (centres unmarked) [Example 112, 4-(4-Bromo-2-oxo-2,3-dihydro-1H-benzo[d]imidazol-1-yl)-N-(3,4-dichlorophenyl)-2-methylpiperidine-1-carboxamide]",4940
13,"O=c1[nH]c2c(Br)cccc2n1[C@H]1CC[C@@H](C(=O)Nc2cncc(Cl)c2)CC1 [Example 188, Cis-4-(4-bromo-2-oxo-2,3-dihydro-1H-1,3-benzodiazol-1-yl)-N-(5-chloropyridin-3-yl)cyclohexane-1-carboxamide]",4630
14,"O=c1[nH]c2ccccc2n1[C@H]1CC[C@@H](C(=O)Nc2ccc(F)cc2)CC1 [Example 322, Cis-N-(4-fluorophenyl)-4-(2-oxo-2,3-dihydro-1H-benzo[d]imidazol-1-yl)cyclohexanecarboxamide]",2630

# Now those with a lower IC50, led by results:
row,IC50 [nM],SMILES
1,239,"CC(=O)Nc1cccc2c1[nH]c(=O)n2[C@H]1CC[C@@H](C(=O)Nc2ccc3cc[nH]c3c2)CC1 [Example 290, Cis-4-(4-acetamido-2-oxo-2,3-dihydro-1H-1,3-benzodiazol-1-yl)-N-(1H-indol-6-yl)cyclohexane-1-carboxamide]"
2,221,"COc1cc(NC(=O)[C@H]2CC[C@@H](n3c(=O)[nH]c4c(C(=O)N5CCCC5C(N)=O)cccc43)CC2)ccc1C (stereo partly drawn) [Example 278, 1-{2-Oxo-1-[cis-4-[(3-methoxy-4-methylphenyl)carbamoyl]cyclohexyl]-2,3-dihydro-1H-1,3-benzodiazole-4-carbonyl}pyrrolidine-2-carboxamide]"
3,196,"COc1cc(NC(=O)[C@H]2CC[C@@H](n3c(=O)[nH]c4cnccc43)CC2)ccc1C [Example 236, Cis-N-(3-methoxy-4-methylphenyl)-4-{2-oxo-1H,2H,3H-imidazo[4,5-c]pyridin-1-yl}cyclohexane-1-carboxamide]"
4,171,"COc1cc(NC(=O)[C@H]2CC[C@@H](n3c(=O)[nH]c4c(C(=O)N5CCN(CCN(C)C)CC5)cccc43)CC2)ccc1C [Example 275, Cis-4-(4-{4-[2-(dimethylamino)ethyl]piperazine-1-carbonyl}-2-oxo-2,3-dihydro-1H-1,3-benzodiazol-1-yl)-N-(3-methoxy-4-methylphenyl)cyclohexane-1-carboxamide]"
5,152,"N#Cc1cc(NC(=O)[C@H]2CC[C@@H](n3c(=O)[nH]c4c(Br)cccc43)CC2)ccc1Cl [Example 157, (Cis)-4-(4-bromo-2-oxo-2,3-dihydro-1H-1,3-benzodiazol-1-yl)-N-(4-chloro-3-cyanophenyl)cyclohexane-1-carboxamide]"
6,118,"COc1cc(NC(=O)[C@H]2CC[C@@H](n3c(=O)[nH]c4c(OCCOC5CCCCC5)cccc43)CC2)ccc1C [Example 326, Cis-4-(4-(2-(cyclohexyloxy)ethoxy)-2-oxo-2,3-dihydro-1H-benzo[d]imidazol-1-yl)-N-(3-methoxy-4-methylphenyl)cyclohexanecarboxamide]"
7,79.5,"COc1cc(NC(=O)[C@H]2CC[C@@H](n3c(=O)[nH]c4c(NC(=O)c5nccn5C)cccc43)CC2)ccc1C [Example 318, 1-Methyl-N-{2-oxo-1-[cis-4-[(3-methoxy-4-methylphenyl)carbamoyl]cyclohexyl]-2,3-dihydro-1H-1,3-benzodiazol-4-yl}-1H-imidazole-2-carboxamide]"
8,56.3,"COc1cc(NC(=O)[C@H]2CC[C@@H](n3c(=O)[nH]c4c(N5Cc6cn[nH]c6C5)cccc43)CC2)ccc1C [Example 314, Cis-N-(3-methoxy-4-methylphenyl)-4-(2-oxo-4-{1H,4H,5H,6H-pyrrolo[3,4-c]pyrazol-5-yl}-2,3-dihydro-1H-1,3-benzodiazol-1-yl)cyclohexane-1-carboxamide]"
9,50.6,"COc1cc(NC(=O)[C@H]2CC[C@@H](n3c(=O)[nH]c4c(S(=O)(=O)CC(=O)O)cccc43)CC2)ccc1C [Example 239, 2-({2-Oxo-1-[cis-4-[(3-methoxy-4-methylphenyl)carbamoyl]cyclohexyl]-2,3-dihydro-1H-1,3-benzodiazol-4-yl}sulfonyl)acetic acid]"
10,6.79,"COc1cc(NC(=O)[C@H]2CC[C@@H](n3c(=O)[nH]c4c(C(=O)NCCNC(C)=O)cccc43)CC2)ccc1C [Example 253, Cis-4-{4-[(2-acetamidoethyl)carbamoyl]-2-oxo-2,3-dihydro-1H-1,3-benzodiazol-1-yl}-N-(3-methoxy-4-methylphenyl)cyclohexane-1-carboxamide]"
11,6.77,"COc1cc(NC(=O)[C@H]2CC[C@@H](n3c(=O)[nH]c4c(C(=O)NCC(O)CO)cccc43)CC2)ccc1C (stereo partly drawn) [Example 248, N-(2,3-Dihydroxypropyl)-2-oxo-1-[cis-4-[(3-methoxy-4-methylphenyl)carbamoyl]cyclohexyl]-2,3-dihydro-1H-1,3-benzodiazole-4-carboxamide]"
12,4.25,"COc1cc(NC(=O)[C@H]2CC[C@@H](n3c(=O)[nH]c4c(C(=O)NCCNS(C)(=O)=O)cccc43)CC2)ccc1C [Example 251, N-(2-Methanesulfonamidoethyl)-2-oxo-1-[cis-4-[(3-methoxy-4-methylphenyl)carbamoyl]cyclohexyl]-2,3-dihydro-1H-1,3-benzodiazole-4-carboxamide]"
13,1.73,"COc1cc(NC(=O)[C@H]2CC[C@@H](n3c(=O)[nH]c4c(NC(=O)CCN)cccc43)CC2)ccc1C [Example 284, Cis-4-[4-(3-aminopropanamido)-2-oxo-2,3-dihydro-1H-1,3-benzodiazol-1-yl]-N-(3-methoxy-4-methylphenyl)cyclohexane-1-carboxamide]"
14,0.37,"COc1cc(NC(=O)[C@H]2CC[C@@H](n3c(=O)[nH]c4c(C(=O)NCC5COCCN5)cccc43)CC2)ccc1C (stereo partly drawn) [Example 292, N-[(Morpholin-3-yl)methyl]-2-oxo-1-[cis-4-[(3-methoxy-4-methylphenyl)carbamoyl]cyclohexyl]-2,3-dihydro-1H-1,3-benzodiazole-4-carboxamide]"
15,0.28,"COc1cc(NC(=O)[C@H]2CC[C@@H](n3c(=O)[nH]c4c(C(=O)NCCCN)cccc43)CC2)ccc1C [Example 265, N-(3-Aminopropyl)-2-oxo-1-[cis-4-[(3-methoxy-4-methylphenyl)carbamoyl]cyclohexyl]-2,3-dihydro-1H-1,3-benzodiazole-4-carboxamide]"
